From patent US20210128566A1, “NOVEL FUNCTIONALIZED PURINE-2,6-DIONES AND THEIR USE IN MEDICINE” (THOMAS HELLEDAYS STIFTELSE FÖR MEDICINSK FORSKNING, priority 2017, published 2021)

Target: recombinant human NUDT5 (Homo sapiens, UniProt Q9UKK9)
Assay: NUDT5 inhibitor activity by malachite green reporter assay
Format: biochemical
Conditions: 6 nM NUDT5, 50 μM ADP-Ribose, 15 minutes at room temperature
Method: NUDT5 inhibitors were evaluated using a coupled enzymatic assay with detection of inorganic phosphate (Pi) using the malachite green assay. Following enzymatic hydrolysis of ADP-Ribose (Sigma-Aldrich A0572) by NUDT5, to yield AMP and ribose-5-phosphate, the latter product is continuously processed by a significant excess of alkaline phosphatase (Sigma-Aldrich, P0114). Formation of Pi is quantified based on the green complex (that absorbs at 630 nm) formed between malachite green and molybdate according to published procedure (Baykov, A. A., Evtushenko, O. A. and Avaeva, S. M., Anal Biochem, 171, 266-270 (1988)). Assay buffer consisted of 10 mM Tris-acetate at pH 8.0, 40 mM sodium chloride, 10 mM magnesium acetate, 0.005% Tween-20 and 1 mM dithiothreitol (DTT). The final conditions consisted of 6 nM recombinant human NUDT5, 50 μM ADP-Ribose and 10 U/ml of calf intestine alkaline phosphatase. The plates with compounds, enzymes and substrate were incubated at room temperature for 15 minutes, after which the reaction was terminated and the signal developed by the addition of the malachite green reagent using a MultiDrop (Thermo Scientific). Following vigorous shaking on plate shakers for a minimum of eight minutes the absorbance was read in a microplate reader (HidexSense) using a filter at 630 nm and a read time of 0.1 s per well. Inhibitors were used in dilutions from 100 μM to 1.7 nM in 3-fold dilution steps. Experiments were run in duplicate and confirmed in two independent experiments. IC50 values were determined by curve fitting using ExcelFit.

IC50 (Table 3) [nM]	IC50 (Table 4) [nM]	SMILES
18.5	–	Cn1c(=O)c2c(nc(N3CCC(CN)CC3)n2Cc2nnc(-c3ccc(Cl)c(Cl)c3)o2)n(C)c1=O [Example 38, 8-[4-(aminomethyl)piperidin-1-yl]-7-{[5-(3,4-dichlorophenyl)-1,3,4-oxadiazol-2-yl)methyl}-1,3-dimethyl-2,3,6,7-tetrahydro-1H-purine-2,6-dione]
162	–	C=CCN(CC=C)c1nc2c(c(=O)n(C)c(=O)n2C)n1Cc1nnc(-c2ccc(Cl)c(Cl)c2)o1 [Example 8, 8-[bis(prop-2-en-1-yl)amino]-7-{[5-(3,4-dichlorophenyl)-1,3,4-oxadiazol-2-yl]methyl}-1,3-dimethyl-2,3,6,7-tetrahydro-1H-purine-2,6-dione]
84.6	–	Cn1c(=O)c2c(nc(N3CC4CCCCC4C3)n2Cc2nnc(-c3ccc(Cl)c(Cl)c3)o2)n(C)c1=O (stereo not drawn) [Example 11, 7-{[5-(3,4-dichlorophenyl)-1,3,4-oxadiazol-2-yl]methyl}-1,3-dimethyl-8-(octahydro-1H-isoindol-2-yl)-2,3,6,7-tetrahydro-1H-purine-2,6-dione]
164	–	Cn1c(=O)c2c(nc(N3CCN(C(=O)OC(C)(C)C)CC3)n2Cc2nnc(-c3ccc(Cl)c(Cl)c3)o2)n(C)c1=O [Example 14, tert-butyl 4-(7-{[5-(3,4-dichlorophenyl)-1,3,4-oxadiazol-2-yl]methyl}-1,3-dimethyl-2,6-dioxo-2,3,6,7-tetrahydro-1H-purin-8-yl)piperazine-1-carboxylate]
–	33.8	Cn1c(=O)c2c(nc(N3CCC(CNC(=O)OC(C)(C)C)CC3)n2Cc2nnc(-c3ccc(Cl)c(Cl)c3)o2)n(C)c1=O [Example 65, tert-butyl N-{[1-(7-{[5-(3,4-dichlorophenyl)-1,3,4-oxadiazol-2-yl]methyl}-1,3-dimethyl-2,6-dioxo-2,3,6,7-tetrahydro-1H-purin-8-yl)piperidin-4-yl]methyl}carbamate]
29.1	–	COc1nc2c(c(=O)n(C)c(=O)n2C)n1Cc1nnc(-c2ccc(Cl)c(Cl)c2)o1 [Example 1, 7-{[5-(3,4-dichlorophenyl)-1,3,4-oxadiazol-2-yl]methyl}-8-methoxy-1,3-dimethyl-2,3,6,7-tetrahydro-1H-purine-2,6-dione]
24.4	–	CCS(=O)(=O)c1nc2c(c(=O)n(C)c(=O)n2C)n1Cc1nnc(-c2ccc(Cl)c(Cl)c2)o1 [Example 23, 7-{[5-(3,4-dichlorophenyl)-1,3,4-oxadiazol-2-yl]methyl}-8-(ethanesulfonyl)-1,3-dimethyl-2,3,6,7-tetrahydro-1H-purine-2,6-dione]
111	–	CN(C)c1nc2c(c(=O)n(C)c(=O)n2C)n1Cc1nnc(-c2ccc(Cl)c(Cl)c2)o1 [Example 3, 7-{[5-(3,4-dichlorophenyl)-1,3,4-oxadiazol-2-yl]methyl}-8-(dimethylamino)-1,3-dimethyl-2,3,6,7-tetrahydro-1H-purine-2,6-dione]
76.7	–	CC(=O)N1CCN(c2nc3c(c(=O)n(C)c(=O)n3C)n2Cc2nnc(-c3ccc(Cl)c(Cl)c3)o2)CC1 [Example 32, 8-(4-acetylpiperazin-1-yl)-7-{[5-(3,4-dichlorophenyl)-1,3,4-oxadiazol-2-yl]methyl}-1,3-dimethyl-2,3,6,7-tetrahydro-1H-purine-2,6-dione]
36.9	–	CCSc1nc2c(c(=O)n(C)c(=O)n2C)n1Cc1nnc(-c2ccc(Cl)c(Cl)c2)o1 [Example 6, 7-{[5-(3,4-dichlorophenyl)-1,3,4-oxadiazol-2-yl]methyl}-8-(ethylsulfanyl)-1,3-dimethyl-2,3,6,7-tetrahydro-1H-purine-2,6-dione]
37	–	Cn1c(=O)c2c(nc(N3CCCC3)n2Cc2nnc(-c3ccc(Cl)c(Cl)c3)o2)n(C)c1=O [Example 28, 7-{[5-(3,4-dichlorophenyl)-1,3,4-oxadiazol-2-yl]methyl}-1,3-dimethyl-8-(pyrrolidin-1-yl)-2,3,6,7-tetrahydro-1H-purine-2,6-dione]
> 1000	–	CC(C)c1nc2c(c(=O)n(C)c(=O)n2C)n1Cc1nnc(-c2ccc(Cl)c(Cl)c2)o1 [Example 62, 7-{[5-(3,4-dichlorophenyl)-1,3,4-oxadiazol-2-yl]methyl}-1,3-dimethyl-8-(propan-2-yl)-2,3,6,7-tetrahydro-1H-purine-2,6-dione]
24.7	–	Cn1c(=O)c2c(nc(N3CCC(O)C3)n2Cc2nnc(-c3ccc(Cl)c(Cl)c3)o2)n(C)c1=O (stereo not drawn) [Example 34, 7-{[5-(3,4-dichlorophenyl)-1,3,4-oxadiazol-2-yl]methyl}-8-(3-hydroxypyrrolidin-1-yl)-1,3-dimethyl-2,3,6,7-tetrahydro-1H-purine-2,6-dione]
–	216	Cc1ccc(-c2nnc(Cn3c(N4CCNCC4)nc4c3c(=O)n(C)c(=O)n4C)o2)cn1 [Example 125, 1,3-dimethyl-7-{[5-(6-methylpyridin-3-yl)-1,3,4-oxadiazol-2-yl]methyl}-8-(piperazin-1-yl)-2,3,6,7-tetrahydro-1H-purine-2,6-dione]
151	–	CN1CCN(c2nc3c(c(=O)n(C)c(=O)n3C)n2Cc2nnc(-c3ccc(Cl)c(Cl)c3)o2)CC1 [Example 18, 7-{[5-(3,4-dichlorophenyl)-1,3,4-oxadiazol-2-yl]methyl}-1,3-dimethyl-8-(4-methylpiperazin-1-yl)-2,3,6,7-tetrahydro-1H-purine-2,6-dione]

The remaining lines, values behind:

SMILES	IC50 (Table 3) [nM]	IC50 (Table 4) [nM]
Cn1c(=O)c2c(nc(N3CCNCC3)n2Cc2nc(-c3ccc(Cl)cc3)no2)n(C)c1=O [Example 70, 7-{[3-(4-chlorophenyl)-1,2,4-oxadiazol-5-yl]methyl}-1,3-dimethyl-8-(piperazin-1-yl)-2,3,6,7-tetrahydro-1H-purine-2,6-dione]	–	57.4
Cn1c(=O)c2c(nc(N3CCNCC3)n2Cc2nnc(-c3ccc(CS(C)(=O)=O)cc3)o2)n(C)c1=O [Example 122, 7-({5-[4-(methanesulfonylmethyl)phenyl]-1,3,4-oxadiazol-2-yl}methyl)-1,3-dimethyl-8-(piperazin-1-yl)-2,3,6,7-tetrahydro-1H-purine-2,6-dione]	–	24400
Cn1c(=O)c2c(nc(N3CCNCC3)n2Cc2nnc(-c3cccnc3)o2)n(C)c1=O [Example 113, 1,3-dimethyl-8-(piperazin-1-yl)-7-{[5-(pyridin-3-yl)-1,3,4-oxadiazol-2-yl]methyl}-2,3,6,7-tetrahydro-1H-purine-2,6-dione]	–	1690
COc1ccc(-c2nnc(Cn3c(N4CCNCC4)nc4c3c(=O)n(C)c(=O)n4C)o2)cc1OC [Example 123, 7-{[5-(3,4-dimethoxyphenyl)-1,3,4-oxadiazol-2-yl]methyl}-1,3-dimethyl-8-(piperazin-1-yl)-2,3,6,7-tetrahydro-1H-purine-2,6-dione]	–	169
COc1cc(-c2nnc(Cn3c(NCCNS(C)(=O)=O)nc4c3c(=O)n(C)c(=O)n4C)o2)ccc1C [Example 133, N-{2-[(7-{[5-(3-methoxy-4-methylphenyl)-1,3,4-oxadiazol-2-yl]methyl}-1,3-dimethyl-2,6-dioxo-2,3,6,7-tetrahydro-1H-purin-8-yl)amino]ethyl}methanesulfonamide]	–	352
Cc1cccc(-c2nnc(Cn3c(N4CCN(C)CC4)nc4c3c(=O)n(C)c(=O)n4C)o2)c1 [Example 51, 1,3-dimethyl-7-{[5-(3-methylphenyl)-1,3,4-oxadiazol-2-yl]methyl}-8-(4-methylpiperazin-1-yl)-2,3,6,7-tetrahydro-1H-purine-2,6-dione]	31.3	–
Cn1c(=O)c2c(nc(Cl)n2Cc2nc(-c3ccc(Cl)cc3)no2)n(C)c1=O [Example 69, 8-chloro-7-{[3-(4-chlorophenyl)-1,2,4-oxadiazol-5-yl]methyl}-1,3-dimethyl-2,3,6,7-tetrahydro-1H-purine-2,6-dione]	–	296
COc1ccc(-c2nnc(Cn3c(Cl)nc4c3c(=O)n(C)c(=O)n4C)o2)cc1 [Example 73, 8-chloro-7-{[5-(4-methoxyphenyl)-1,3,4-oxadiazol-2-yl]methyl}-1,3-dimethyl-2,3,6,7-tetrahydro-1H-purine-2,6-dione]	–	1260
Cn1c(=O)c2c(nc(Cl)n2Cc2nnc(-c3ccc(C(F)(F)F)cc3)o2)n(C)c1=O [Example 102, 8-chloro-1,3-dimethyl-7-({5-[4-(trifluoromethyl)phenyl]-1,3,4-oxadiazol-2-yl}methyl)-2,3,6,7-tetrahydro-1H-purine-2,6-dione]	–	484
Cn1c(=O)c2c(nc(Cl)n2Cc2nnc(-c3ccc(Cl)cc3)o2)n(C)c1=O [Example 89, 8-chloro-7-{[5-(4-chlorophenyl)-1,3,4-oxadiazol-2-yl]methyl}-1,3-dimethyl-2,3,6,7-tetrahydro-1H-purine-2,6-dione]	–	620
COc1cccc(-c2nnc(Cn3c(Cl)nc4c3c(=O)n(C)c(=O)n4C)o2)c1 [Example 92, 8-chloro-7-{[5-(3-methoxyphenyl)-1,3,4-oxadiazol-2-yl]methyl}-1,3-dimethyl-2,3,6,7-tetrahydro-1H-purine-2,6-dione]	–	596
Cn1c(=O)c2c(nc(N3CCNCC3)n2Cc2nnc(-c3ccc(N4CCNCC4)nc3)o2)n(C)c1=O [Example 114, 1,3-dimethyl-8-(piperazin-1-yl)-7-({5-[6-(piperazin-1-yl)pyridin-3-yl]-1,3,4-oxadiazol-2-yl}methyl)-2,3,6,7-tetrahydro-1H-purine-2,6-dione]	–	29000
